What all share (type): cell-based
In assay [1] the target is T1, human EGFR exon 20 insertion ASV (V769_D770insASV) (Homo sapiens, UniProt P00533, INS769ASV).
T1 construct: expressed in transfected cells; host or cells: Ba/F3 (murine pro-B) cells transduced with lentivirus from pLVX-IRES puro
The assay can be described thus: Ba/F3-EGFR-Exon20-ASV cell anti-proliferative assay (CellTiter 96 MTS, 72 h). The conditions noted are these: Ba/F3-EGFR-Exon20-ASV cells. A digest of the protocol:
(§1)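 Ba/F3 cells made IL-3-independent by lentiviral EGFR exon 20 NPG or ASV insertion were exposed 72 h at 37 °C to 4-fold dilutions of compound (top 10,000 nM). Viability read by MTS tetrazolium conversion, absorbance 490 nm after 2 h.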

Assay [2] deals with T2, human EGFR exon 20 insertion NPG (H773_V774insNPG) (Homo sapiens, UniProt P00533, INS772GNP).
T2 construct: expressed in transfected cells; host or cells: Ba/F3 (murine pro-B) cells transduced with lentivirus from pLVX-IRES puro
The assay can be described thus: Ba/F3-EGFR-Exon20-NPG cell anti-proliferative assay (CellTiter 96 MTS, 72 h). The settings on record: Ba/F3-EGFR-Exon20-NPG cells. A digest of the protocol: as §1

Assay [3] has as its target T3, human EGFR E746-A750 deletion and T790M Mutation (Homo sapiens, UniProt P00533, DEL746-750/T790M).
T3 construct: expressed in transfected cells; host or cells: Ba/F3 (murine pro-B) cells transduced with lentivirus from pLVX-IRES puro
The experiment in a line: Ba/F3-EGFR-Del/T790M cell anti-proliferative assay (CellTiter 96 MTS, 72 h). The conditions noted are these: Ba/F3-EGFR-Del/T790M cells. Put shortly: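 Ba/F3 cells made IL-3-independent by lentiviral human EGFR E746-A750 del/T790M, puromycin-selected. Cells treated 72 h at 37 °C with compound, 4-fold dilutions from 10,000 nM top concentration. Viability read by MTS tetrazolium-to-formazan conversion, absorbance at 490 nm after 2 h with reagent.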

For assay [4], the target named is T4, Her2 exon 20 YVMA insertion (A775_G776ins YVMA) (Homo sapiens, UniProt P04626, INS775YVMA).
T4 construct: expressed in transfected cells; host or cells: Ba/F3 (murine pro-B) cells transduced with lentivirus from pLVX-IRES puro
The assay can be described thus: Ba/F3-Her2 Exon20 YVMA cell anti-proliferative assay (CellTiter 96 MTS, 72 h). The conditions noted are these: Ba/F3-Her2 Exon20 YVMA cells. A digest of the protocol: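 IL-3-independent Ba/F3 cells transduced with the YVMA insertion were treated with compound in 4-fold dilutions from 10,000 nM top. After 72 h at 37° C, viable cells were quantified by MTS tetrazolium conversion, with absorbance read at 490 nm after 2 h.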

Data on 14 compounds can be found in patent publication US20170166598A1, “HETEROARYL COMPOUNDS FOR KINASE INHIBITION” (ARIAD PHARMACEUTICALS, INC., priority 2014, published 2017).

T4 sequence (P04626 with tags, fused parts or gaps INS775YVMA): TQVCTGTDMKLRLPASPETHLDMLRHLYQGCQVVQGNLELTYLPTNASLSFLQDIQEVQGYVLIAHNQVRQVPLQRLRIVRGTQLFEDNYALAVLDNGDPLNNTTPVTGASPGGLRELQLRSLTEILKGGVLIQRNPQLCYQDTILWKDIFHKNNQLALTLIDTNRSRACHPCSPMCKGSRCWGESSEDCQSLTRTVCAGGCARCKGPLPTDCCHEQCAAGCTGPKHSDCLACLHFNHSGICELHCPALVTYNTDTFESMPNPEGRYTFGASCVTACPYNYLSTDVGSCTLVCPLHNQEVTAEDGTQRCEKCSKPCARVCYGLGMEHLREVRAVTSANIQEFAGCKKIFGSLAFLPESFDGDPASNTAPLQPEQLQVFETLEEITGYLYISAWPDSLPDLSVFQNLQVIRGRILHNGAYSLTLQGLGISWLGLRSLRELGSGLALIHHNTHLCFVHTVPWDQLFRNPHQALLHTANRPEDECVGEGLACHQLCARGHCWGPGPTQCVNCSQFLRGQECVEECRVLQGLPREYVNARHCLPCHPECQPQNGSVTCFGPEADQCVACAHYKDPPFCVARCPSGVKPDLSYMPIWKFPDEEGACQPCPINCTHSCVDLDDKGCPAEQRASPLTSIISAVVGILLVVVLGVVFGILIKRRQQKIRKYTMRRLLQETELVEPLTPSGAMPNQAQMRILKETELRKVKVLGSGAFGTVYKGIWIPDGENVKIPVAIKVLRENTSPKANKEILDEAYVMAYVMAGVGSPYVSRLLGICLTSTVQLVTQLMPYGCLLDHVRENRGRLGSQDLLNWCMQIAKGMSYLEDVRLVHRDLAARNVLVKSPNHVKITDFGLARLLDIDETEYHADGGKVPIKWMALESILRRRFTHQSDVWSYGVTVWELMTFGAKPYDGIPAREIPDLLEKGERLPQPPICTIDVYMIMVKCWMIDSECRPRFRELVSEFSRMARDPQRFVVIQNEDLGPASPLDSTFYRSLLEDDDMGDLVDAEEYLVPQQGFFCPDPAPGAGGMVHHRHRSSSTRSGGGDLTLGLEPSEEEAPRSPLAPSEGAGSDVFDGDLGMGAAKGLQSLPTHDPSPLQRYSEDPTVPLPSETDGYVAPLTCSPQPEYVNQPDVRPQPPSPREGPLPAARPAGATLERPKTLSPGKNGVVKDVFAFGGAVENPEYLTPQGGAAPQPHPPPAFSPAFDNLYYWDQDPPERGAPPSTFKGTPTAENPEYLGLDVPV
T2 sequence (P00533 with tags, fused parts or gaps INS772GNP): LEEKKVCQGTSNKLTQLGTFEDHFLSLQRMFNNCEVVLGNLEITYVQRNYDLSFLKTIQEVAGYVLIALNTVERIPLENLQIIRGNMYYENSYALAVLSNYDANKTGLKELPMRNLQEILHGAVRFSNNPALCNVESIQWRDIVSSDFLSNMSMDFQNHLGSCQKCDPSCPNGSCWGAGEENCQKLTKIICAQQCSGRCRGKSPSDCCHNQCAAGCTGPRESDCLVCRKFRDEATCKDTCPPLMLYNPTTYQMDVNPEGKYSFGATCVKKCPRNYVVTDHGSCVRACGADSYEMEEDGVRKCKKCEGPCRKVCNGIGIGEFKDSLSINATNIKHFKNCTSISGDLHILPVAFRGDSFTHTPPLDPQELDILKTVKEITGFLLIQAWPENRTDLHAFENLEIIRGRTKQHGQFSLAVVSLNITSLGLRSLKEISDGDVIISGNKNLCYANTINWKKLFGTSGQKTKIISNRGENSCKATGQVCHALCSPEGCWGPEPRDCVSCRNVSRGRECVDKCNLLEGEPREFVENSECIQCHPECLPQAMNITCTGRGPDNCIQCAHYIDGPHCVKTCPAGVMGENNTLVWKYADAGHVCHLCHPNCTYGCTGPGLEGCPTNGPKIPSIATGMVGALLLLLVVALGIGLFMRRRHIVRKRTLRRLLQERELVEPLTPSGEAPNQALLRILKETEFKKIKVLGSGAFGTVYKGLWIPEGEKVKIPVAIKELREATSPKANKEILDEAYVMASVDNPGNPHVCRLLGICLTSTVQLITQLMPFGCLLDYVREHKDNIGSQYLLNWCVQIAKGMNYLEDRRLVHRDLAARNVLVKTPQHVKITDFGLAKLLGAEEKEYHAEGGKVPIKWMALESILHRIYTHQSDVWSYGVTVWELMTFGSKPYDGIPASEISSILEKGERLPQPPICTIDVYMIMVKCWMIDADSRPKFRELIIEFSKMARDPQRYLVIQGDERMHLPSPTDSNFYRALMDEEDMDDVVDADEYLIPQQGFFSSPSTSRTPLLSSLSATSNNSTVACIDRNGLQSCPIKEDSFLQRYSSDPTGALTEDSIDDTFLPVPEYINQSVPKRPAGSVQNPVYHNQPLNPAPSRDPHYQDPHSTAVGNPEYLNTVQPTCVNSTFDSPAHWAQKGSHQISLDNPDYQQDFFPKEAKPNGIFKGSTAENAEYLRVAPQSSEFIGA
T1 sequence (P00533 with tags, fused parts or gaps INS769ASV): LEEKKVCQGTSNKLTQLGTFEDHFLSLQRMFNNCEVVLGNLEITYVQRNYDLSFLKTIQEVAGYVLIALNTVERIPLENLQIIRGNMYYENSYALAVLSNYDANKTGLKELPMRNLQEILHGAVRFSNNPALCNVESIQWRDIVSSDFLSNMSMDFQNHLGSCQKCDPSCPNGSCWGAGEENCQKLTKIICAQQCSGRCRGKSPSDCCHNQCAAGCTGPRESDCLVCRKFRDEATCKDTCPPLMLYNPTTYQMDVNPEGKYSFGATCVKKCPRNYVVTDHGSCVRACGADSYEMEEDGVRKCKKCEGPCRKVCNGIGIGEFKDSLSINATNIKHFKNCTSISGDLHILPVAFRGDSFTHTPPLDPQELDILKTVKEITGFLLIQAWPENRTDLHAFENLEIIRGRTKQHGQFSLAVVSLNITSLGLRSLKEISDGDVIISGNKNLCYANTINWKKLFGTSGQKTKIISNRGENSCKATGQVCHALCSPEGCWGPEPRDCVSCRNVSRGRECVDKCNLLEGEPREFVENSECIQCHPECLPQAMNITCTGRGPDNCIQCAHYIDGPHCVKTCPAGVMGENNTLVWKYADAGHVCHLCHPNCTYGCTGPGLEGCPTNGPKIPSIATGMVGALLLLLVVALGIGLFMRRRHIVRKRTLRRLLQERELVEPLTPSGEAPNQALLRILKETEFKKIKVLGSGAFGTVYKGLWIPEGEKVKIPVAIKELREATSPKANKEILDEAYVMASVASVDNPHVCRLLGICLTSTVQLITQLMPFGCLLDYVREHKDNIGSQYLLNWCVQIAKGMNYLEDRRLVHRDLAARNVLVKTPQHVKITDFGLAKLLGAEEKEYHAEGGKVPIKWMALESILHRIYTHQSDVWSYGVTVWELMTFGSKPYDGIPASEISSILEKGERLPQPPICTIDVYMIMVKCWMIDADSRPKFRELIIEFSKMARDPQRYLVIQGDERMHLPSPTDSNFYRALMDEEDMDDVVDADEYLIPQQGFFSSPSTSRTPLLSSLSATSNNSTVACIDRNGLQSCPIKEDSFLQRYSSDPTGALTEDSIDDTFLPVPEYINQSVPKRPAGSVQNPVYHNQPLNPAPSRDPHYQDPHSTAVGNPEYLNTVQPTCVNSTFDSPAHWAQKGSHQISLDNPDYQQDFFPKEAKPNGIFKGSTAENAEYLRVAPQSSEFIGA
T3 sequence (P00533 with tags, fused parts or gaps DEL746-750/T790M): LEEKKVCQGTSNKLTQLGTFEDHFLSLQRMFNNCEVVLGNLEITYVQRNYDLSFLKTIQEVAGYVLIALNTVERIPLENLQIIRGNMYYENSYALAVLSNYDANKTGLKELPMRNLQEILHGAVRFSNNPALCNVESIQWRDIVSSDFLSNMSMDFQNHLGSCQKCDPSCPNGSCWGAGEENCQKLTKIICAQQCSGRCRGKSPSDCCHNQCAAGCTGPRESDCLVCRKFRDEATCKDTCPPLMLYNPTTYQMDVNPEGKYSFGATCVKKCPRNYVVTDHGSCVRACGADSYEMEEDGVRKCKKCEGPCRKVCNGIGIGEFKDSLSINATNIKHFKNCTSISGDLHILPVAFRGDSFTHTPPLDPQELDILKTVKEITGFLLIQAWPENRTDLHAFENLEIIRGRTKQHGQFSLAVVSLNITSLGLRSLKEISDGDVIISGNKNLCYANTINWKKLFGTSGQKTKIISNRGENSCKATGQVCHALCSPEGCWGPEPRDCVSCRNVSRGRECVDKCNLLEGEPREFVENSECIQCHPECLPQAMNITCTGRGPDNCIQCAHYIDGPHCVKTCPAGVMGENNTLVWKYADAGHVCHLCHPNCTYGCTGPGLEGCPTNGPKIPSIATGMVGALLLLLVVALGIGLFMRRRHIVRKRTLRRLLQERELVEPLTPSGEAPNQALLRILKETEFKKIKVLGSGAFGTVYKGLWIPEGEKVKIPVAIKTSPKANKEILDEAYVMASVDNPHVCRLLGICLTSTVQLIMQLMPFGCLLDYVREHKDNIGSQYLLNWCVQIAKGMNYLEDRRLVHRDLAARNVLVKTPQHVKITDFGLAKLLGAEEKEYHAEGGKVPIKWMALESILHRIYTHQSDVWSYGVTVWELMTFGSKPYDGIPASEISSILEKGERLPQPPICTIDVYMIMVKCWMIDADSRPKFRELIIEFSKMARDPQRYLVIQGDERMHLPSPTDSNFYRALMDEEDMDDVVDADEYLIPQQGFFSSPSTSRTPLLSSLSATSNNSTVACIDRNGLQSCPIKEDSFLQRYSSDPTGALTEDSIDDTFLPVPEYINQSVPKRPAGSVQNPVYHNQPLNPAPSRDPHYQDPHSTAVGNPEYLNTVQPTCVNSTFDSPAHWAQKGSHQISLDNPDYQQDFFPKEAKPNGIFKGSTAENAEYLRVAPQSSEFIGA

Regarding `C=CC(=O)Nc1cc(Nc2ncc(N(C)CCO)c(-c3cn4c5c(cccc35)CCC4)n2)c(OC)cc1N(C)CCN(C)C` [Example 60, N-(5-((4-(5,6-dihydro-4H-pyrrolo[3,2,1-ij]quinolin-1-yl)-5-((2-hydroxyethyl)(methyl)amino)pyrimidin-2-yl)amino)-2-((2-(dimethylamino)ethyl)-(methyl)amino)-4-methoxyphenyl)acrylamide], the results for the IC50 in assay [1], in assay [2] and in assay [4] were below 100 nM, below 100 nM and 100 to 500 nM, respectively. The “EGFR exon 19 deletion and exon 20 T790M mutation IC50” value in assay [3] is “A (IC50 value for the indicated mutant below about 100 nM)”.
With `C=CC(=O)Nc1cc(Nc2ncc(C#N)c(-c3cn4c5c(cccc35)OCC4)n2)c(OC)cc1N1CC[C@@H](N(C)C)C1` [Example 5, (R)-N-(5-((5-cyano-4-(2,3-dihydro-[1,4]oxazino[2,3,4-hi]indol-6-yl)pyrimidin-2-yl)amino)-2-(3-(dimethylamino)pyrrolidin-1-yl)-4-methoxyphenyl)acrylamide], the IC50 – broadly, the concentration that inhibits the measured activity by half – in assay [1] is below 100 nM; in assay [2] it was below 100 nM; in assay [4], 100 to 500 nM. Besides, in assay [3], the “EGFR exon 19 deletion and exon 20 T790M mutation IC50” value is “A (IC50 value for the indicated mutant below about 100 nM)”.
`C=CC(=O)Nc1cc(Nc2ncc(OCC(C)O)c(-c3cn4c5c(cccc35)CCC4)n2)c(OC)cc1N(C)CCN(C)C` (centres unmarked) [Example 51, N-(5-((4-(5,6-dihydro-4H-pyrrolo[3,2,1-ij]quinolin-1-yl)-5-(2-hydroxypropoxy)pyrimidin-2-yl)amino)-2-((2-(dimethylamino)ethyl)(methyl)amino)-4-methoxyphenyl)acrylamide]: the half-maximal inhibitory concentration (IC50) in assay [1] is below 100 nM; in assay [2] it was below 100 nM; in assay [4], 100 to 500 nM. The “EGFR exon 19 deletion and exon 20 T790M mutation IC50” value in assay [3] was “A (IC50 value for the indicated mutant below about 100 nM)”.
As for `C=CC(=O)Nc1cc(Nc2ncc(-c3ncccn3)c(-c3cn4c5c(cccc35)CCC4)n2)c(OC)cc1N(C)CCN(C)C` [Example 108], the IC50 in assay [1] was 100 to 500 nM; in assay [2], below 100 nM; in assay [4] it was above 1000 nM. Moreover, in assay [3], the “EGFR exon 19 deletion and exon 20 T790M mutation IC50” value is “B (IC50 value for the indicated mutant between about 100 to about 500 nM)”.
`C=CC(=O)Nc1cc(Nc2nccc(-c3c(-c4ncco4)n4c5c(cccc35)CCC4)n2)c(OC)cc1N(C)CCN(C)C` [Example 63, N-(2-((2-(dimethylamino)ethyl)(methyl)amino)-4-methoxy-5-((4-(2-(oxazol-2-yl)-5,6-dihydro-4H-pyrrolo[3,2,1-ij]quinolin-1-yl)pyrimidin-2-yl)amino)phenyl)acrylamide]: the IC50 in assay [1] is 100 to 500 nM; in assay [2], below 100 nM; in assay [4], 500 to 1000 nM. Besides, the “EGFR exon 19 deletion and exon 20 T790M mutation IC50” value in assay [3] is recorded as “A (IC50 value for the indicated mutant below about 100 nM)”.
The corresponding values for `C=CC(=O)Nc1cc(Nc2ncc(N3CCCC3)c(-c3cn4c5c(cccc35)CCC4)n2)c(OC)cc1N(C)CCN(C)C` [Example 106] are 100 to 500 nM, 100 to 500 nM, 500 to 1000 nM and “A (IC50 value for the indicated mutant below about 100 nM)”.
`C=CC(=O)Nc1cc(Nc2ncc(C(=O)OC)c(-c3cn4c5c(cccc35)CCC4)n2)c(OC)cc1N(C)CCN(C)C` [Example 44, methyl 2-((5-acrylamido-4-((2-(dimethylamino)ethyl)(methyl)amino)-2-methoxyphenyl)amino)-4-(5,6-dihydro-4H-pyrrolo[3,2,1-ij]quinolin-1-yl)pyrimidin-5-carboxylate]: the IC50 in assay [1], in assay [2] and in assay [4] was below 100 nM each time. In assay [3], the “EGFR exon 19 deletion and exon 20 T790M mutation IC50” value was “A (IC50 value for the indicated mutant below about 100 nM)”.
Turning to `C=CC(=O)Nc1cc(Nc2nccc(-c3c(-c4ncnn4C)n4c5c(cccc35)CCC4)n2)c(OC)cc1N(C)CCN(C)C` [Example 110], the IC50 in assay [1] is 100 to 500 nM; in assay [2], below 100 nM; in assay [4], above 1000 nM. Further, in assay [3], the “EGFR exon 19 deletion and exon 20 T790M mutation IC50” value is “A (IC50 value for the indicated mutant below about 100 nM)”.
In the same order, the values of `C=CC(=O)Nc1cc(Nc2ncc(-c3cn(C)nc3C)c(-c3cn4c5c(cccc35)CCC4)n2)c(OC)cc1N(C)CCN(C)C` [Example 100] are below 100 nM, below 100 nM, below 100 nM and “A (IC50 value for the indicated mutant below about 100 nM)”.
The corresponding values for `C=CC(=O)Nc1cc(Nc2ncc(CCC#N)c(-c3cn4c5c(cccc35)CCC4)n2)c(OC)cc1N(C)CCN(C)C` [Example 41, N-(5-((5-(2-cyanoethyl)-4-(5,6-dihydro-4H-pyrrolo[3,2,1-ij]quinolin-1-ul)pyrimidin-2-yl)amino)-2-((2-(dimethylamino)ethyl)(methyl)amino)-4-methoxyphenyl)acrylamide] are below 100 nM, below 100 nM, below 100 nM and “A (IC50 value for the indicated mutant below about 100 nM)”.
The corresponding values for `C=CC(=O)Nc1cc(Nc2ncc(SCCO)c(-c3cn4c5c(cccc35)CCC4)n2)c(OC)cc1N(C)CCN(C)C` [Example 58, N-(5-((4-(5,6-dihydro-4H-pyrrolo[3,2,1-ij]quinolin-1-yl)-5-((2-hydroxyethyl)thio)pyrimidin-2-yl)amino)-2-((2-(dimethylamino)ethyl)(methyl)amino)-4-methoxyphenyl)acrylamide] are below 100 nM, below 100 nM, 100 to 500 nM and “A (IC50 value for the indicated mutant below about 100 nM)”.
For `C=CC(=O)Nc1cc(Nc2ncc(CC)c(-c3cn4c5c(cccc35)N(C)C(=O)C4)n2)c(OC)cc1N(C)CCN(C)C` [Example 66, N-(2-((2-(dimethylamino)ethyl)(methyl)amino)-5-((5-ethyl-4-(1-methyl-2-oxo-2,3-dihydro-1H-pyrrolo[1,2,3-de]quinoxalin-6-yl)pyrimidin-2-yl)amino)-4-methoxyphenyl)acrylamide], the concentration for half-maximal inhibition (IC50) in assay [1], in assay [2] and in assay [4] was below 100 nM each time. The “EGFR exon 19 deletion and exon 20 T790M mutation IC50” value in assay [3] was “A (IC50 value for the indicated mutant below about 100 nM)”.
Take `C=CC(=O)Nc1cc(Nc2nccc(-c3c(N4CCC(OC)C4)n4c5c(cccc35)CCC4)n2)c(OC)cc1N(C)CCN(C)C` (centres unmarked) [Example 90]: the results for the IC50 in assay [1], in assay [2] and in assay [4] were 100 to 500 nM, below 100 nM and 100 to 500 nM, respectively. The “EGFR exon 19 deletion and exon 20 T790M mutation IC50” value in assay [3] was “A (IC50 value for the indicated mutant below about 100 nM)”.
For the compound `C=CC(=O)Nc1cc(Nc2ncc(C#N)c(-c3cn4c5c(cccc35)OCC4)n2)c(OC)cc1N1CC(N(C)C)C1` [Example 6, N-(5-((5-cyano-4-(2,3-dihydro-[1,4]oxazino[2,3,4-hi]indol-6-yl)pyrimidin-2-yl)amino)-2-(3-(dimethylamino)azetidin-1-yl)-4-methoxyphenyl)acrylamide], the values for the IC50 in assay [1], in assay [2] and in assay [4] were 100 to 500 nM, below 100 nM and 100 to 500 nM, respectively. In addition, the “EGFR exon 19 deletion and exon 20 T790M mutation IC50” value in assay [3] is “A (IC50 value for the indicated mutant below about 100 nM)”.
